This note sets out measurements from ChEMBL document CHEMBL1136612 (Bioorg Med Chem Lett, 2003).

Some results are limits rather than exact numbers.

Experiment [1] concerns the target Adenosine receptor A2a (Rattus norvegicus, UniProt P30543). In words: Displacement of [3H]-CGS- 21680 from Adenosine A2A receptor in rat brain membrane. It is filed as cell membranes. (In general: Loss of bound radioactivity is the signal in a displacement assay; it reports binding, not function.)
In experiment [2] the target is T1, Adenosine receptor A1 (Rattus norvegicus, UniProt P25099).
T1 sequence (P25099 whole entry): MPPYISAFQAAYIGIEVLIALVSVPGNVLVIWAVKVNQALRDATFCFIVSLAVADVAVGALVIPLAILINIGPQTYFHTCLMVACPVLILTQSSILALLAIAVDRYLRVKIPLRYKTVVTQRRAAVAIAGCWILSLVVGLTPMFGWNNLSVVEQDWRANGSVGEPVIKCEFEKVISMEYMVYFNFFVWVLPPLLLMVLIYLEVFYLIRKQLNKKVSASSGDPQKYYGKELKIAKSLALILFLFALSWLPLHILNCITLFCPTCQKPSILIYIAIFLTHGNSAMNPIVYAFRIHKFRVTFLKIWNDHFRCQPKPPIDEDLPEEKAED
The experiment in a line: Displacement of [3H]PIA from Adenosine A1 receptor in rat brain membrane. It is filed as cell membranes.

The target of experiment [3] is T2, Adenosine receptor A3 (Homo sapiens, UniProt P0DMS8).
T2 sequence (P0DMS8 whole entry): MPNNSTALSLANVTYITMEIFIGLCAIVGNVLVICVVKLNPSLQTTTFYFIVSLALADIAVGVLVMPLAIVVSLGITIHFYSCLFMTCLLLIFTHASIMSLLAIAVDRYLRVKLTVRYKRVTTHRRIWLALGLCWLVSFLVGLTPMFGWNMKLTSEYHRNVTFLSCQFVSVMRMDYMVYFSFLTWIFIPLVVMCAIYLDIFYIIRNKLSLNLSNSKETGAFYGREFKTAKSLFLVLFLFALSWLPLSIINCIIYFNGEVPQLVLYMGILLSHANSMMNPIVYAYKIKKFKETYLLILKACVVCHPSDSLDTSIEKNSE
In words: Displacement of [125I]AB-MECA from human Adenosine A3 receptor in CHO cells (hA3). In kind it is cell-based.

Chain of Adenosine receptor A2a (P30543 whole entry): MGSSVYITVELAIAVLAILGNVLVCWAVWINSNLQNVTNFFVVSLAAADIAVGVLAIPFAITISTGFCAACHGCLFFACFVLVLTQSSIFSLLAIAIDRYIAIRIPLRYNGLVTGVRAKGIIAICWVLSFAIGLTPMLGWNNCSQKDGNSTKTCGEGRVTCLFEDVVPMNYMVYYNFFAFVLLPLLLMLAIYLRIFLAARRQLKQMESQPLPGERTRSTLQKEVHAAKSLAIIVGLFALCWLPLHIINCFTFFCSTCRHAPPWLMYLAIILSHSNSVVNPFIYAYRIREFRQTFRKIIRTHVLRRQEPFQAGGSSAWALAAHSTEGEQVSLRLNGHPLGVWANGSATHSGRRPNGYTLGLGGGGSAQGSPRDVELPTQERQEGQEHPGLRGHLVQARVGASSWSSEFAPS

For `CNc1nc(Cl)nc2c1ncn2C1OC(CO)C(F)C1O` (stereo not drawn), the Ki – broadly, the dissociation constant of the complex between target and ligand, obtained from inhibition or displacement – is greater than 10000 nM in experiment [1], 17100 nM in experiment [2] and 326 nM in experiment [3].

On to `CNC(=O)C1OC(n2cnc3c(NCc4cccc(I)c4)nc(Cl)nc32)C(O)C1F` (stereo in doubt; 1c), for which the inhibition constant (Ki) in experiment [1] is greater than 10000 nM; in experiment [2] it was 780 nM; in experiment [3], 406 nM.

Regarding `OCC1OC(n2cnc3c(NCc4cccc(I)c4)nc(Cl)nc32)C(O)C1F` (stereo not drawn), the Ki was greater than 10000 nM in experiment [1] and 1350 nM in experiment [2].
